According to PubChem BioAssay AID1959 (Broad Institute, 2009):
Calls of active or inactive are those of the source.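 How the source made its calls: active means growth-inhibition EC50 no more than tenfold above the top tested dose; inconclusive means flat fit between 30% and 70% inhibition, or unreliable fit; inactive means EC50 more than tenfold above the top tested dose.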

What follows are compounds tested on E. coli NEB5alpha growth, BacTiter-Glo luminescence, 4 h (assay: antibacterial activity against E. coli NEB5alpha – luminescence, counter-screen for MEX-5/POS-1 RNA-binding inhibitor project, dose response (AID 1959);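 further: pUC19-transformed ampicillin-resistant cells grown in LB with ampicillin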).

Compound | EC50
Cc1cc(/C=N/NC(=O)c2cccc(N(C)C)c2)c(C)n1-c1cc(C(=O)O)cc(C(=O)O)c1 | > 11 µM (inactive)
CCOc1ccc(N/C(=C(/C(Cl)=C(Cl)Cl)[N+](=O)[O-])n2cncn2)cc1 | > 11 µM (inactive)
O=c1cc(-c2ccc(O)c(O)c2)oc2cc(O)cc(O)c12 | > 11 µM (inactive)
O=C(NNc1ccccn1)C(=O)NNS(=O)(=O)c1ccc(F)cc1 | > 11 µM (inactive)
CC1(C)CC(=O)C2=C(C1)OC(N)=C(C#N)[C@@H]2c1ccccc1[N+](=O)[O-] | > 11 µM (inactive)
C=CCn1cc(C=C2C(=O)NC(=O)NC2=O)c2ccccc21 | > 11 µM (inactive)
CSc1nnc(N2C(=O)C(O)=C(C(=O)c3ccco3)C2c2cccc(Cl)c2)s1 (stereo not drawn) | > 11 µM (inactive)
O=C(O)c1ccc(S(=O)(=O)/N=C2\C=C(Nc3ccccc3F)C(=O)c3ccccc32)cc1 | > 11 µM (inactive)
CCOC(=O)C1Nc2ccc(OC(F)(F)F)cc2C2C=CCC12 (stereo not drawn) | > 11 µM (inactive)
COc1ccc(CCC(=O)Nc2cccc(Cl)c2)cc1 | > 11 µM (inactive)
Cc1cc(/C=C2\C(=O)NC(=O)N(Cc3ccccc3)C2=O)c(C)n1C1CC1 | > 11 µM (inactive)
Cn1cc(/C=N/n2cnc3scc(-c4ccc(Cl)cc4)c3c2=O)c2ccccc21 | > 11 µM (inactive)
Cn1cc(C2=C(c3ccc(Cl)cc3Cl)C(=O)NC2=O)c2ccccc21 | > 11 µM (inactive)
O=C(Cc1nc2ccccc2[nH]c1=O)c1ccccc1 | > 11 µM (inactive)
CC(C)CNC(=O)C1Nc2ccccc2C2C=CCC12 (stereo not drawn) | > 11 µM (inactive)
Cc1cc(C=O)c(C)n1-c1cc(C(=O)O)cc(C(=O)O)c1 | > 11 µM (inactive)
COCCNC(=O)C1Nc2ccc(OC(F)(F)F)cc2C2C=CCC12 (stereo not drawn) | > 11 µM (inactive)
Nc1nnc(C(=O)c2ccccc2N)s1 | > 11 µM (inactive)
Cc1cc(C)c2c(=O)[nH]c(=O)n(Cc3ccccc3)c2n1 | > 11 µM (inactive)
Cc1ccc(C)n1-c1ccc2c(c1)COC2=O | > 11 µM (inactive)
Cc1cc(/C=C2/C(=O)NC(=O)N(c3ccccc3)C2=O)c(C)n1-c1ccc(F)cc1 | > 11 µM (inactive)
O=C(O)C1Nc2c(O)cc(Cl)c([N+](=O)[O-])c2C2C=CCC12 (stereo not drawn) | > 11 µM (inactive)
CCN(CC)c1ccc(N=Cc2c(O)n(-c3ccccc3)c(=O)[nH]c2=O)cc1 | > 11 µM (inactive)
C=CCN1C(=O)NC(=O)/C(=C/c2ccc(OC)c(CSc3ccccn3)c2)C1=O | > 11 µM (inactive)

Compound | EC50
COc1ccc(C2=CC3=C(Br)C(=O)C(C)(OC(=O)c4ccc(Cl)nc4)C(=O)C3=CO2)cc1 (stereo not drawn) | > 11 µM (inactive)
CCOc1ccc(-n2c(O)c(C=Nc3ccc(N4CCOCC4)cc3)c(=O)[nH]c2=O)cc1 | > 11 µM (inactive)
O=C(CCc1ccc(O)c(O)c1)N/N=C/c1cc2c(cc1[N+](=O)[O-])OCO2 | > 11 µM (inactive)
NC(=O)C[n+]1cccc2ccccc21 | > 11 µM (inactive)
CCOC(=O)Cc1nc2ccccc2n(CC#N)c1=O | > 11 µM (inactive)
Cc1nc2ccccc2c2oc(C(=O)Nc3ccc4c(c3)OCCO4)cc12 | > 11 µM (inactive)
COc1cc2c(cc1C1C(C#N)=C(N)OC3=C1C(=O)CC(C)(C)C3)OCO2 (stereo not drawn) | > 11 µM (inactive)
COc1ccc(-c2nc(CS(=O)CC(=O)NCc3ccccn3)c(C)o2)cc1 (stereo not drawn) | > 11 µM (inactive)
Cc1c(NC(=O)CSc2ccc(Cl)cc2)cccc1-c1nc2cc(Cl)ccc2o1 | > 11 µM (inactive)
CCn1c(SCc2ccc(C)cc2)nnc1C1CCN(S(=O)(=O)c2ccc(OC)cc2)CC1 | > 11 µM (inactive)
COc1ccc(-c2onc3ccc(C(C)=O)cc23)cc1 | > 11 µM (inactive)
N=c1c(S(=O)(=O)c2ccc(Cl)cc2)cc2c(=O)n3ccccc3nc2n1C1CCCC1 | > 11 µM (inactive)
Cc1ccc(CNC(=O)/C(C#N)=C\c2ccc(N(C)C)cc2)cc1 | > 11 µM (inactive)
O=C(N/N=C/c1c(O)n(CCc2ccc(F)cc2)c(=O)[nH]c1=O)c1ccccc1 | > 11 µM (inactive)
CCCC[n+]1ccn(C2=C([O-])c3ccccc3C(=O)/C2=N\S(=O)(=O)c2ccc(Cl)cc2)c1 | > 11 µM (inactive)
COc1ccccc1N1C(=O)C(Cl)=C(Nc2ccccc2O)C1=O | > 11 µM (inactive)
Cc1cc([N+](=O)[O-])ccc1-c1ccc(/C=N/NC(=O)c2ccc(Br)o2)o1 | > 11 µM (inactive)
CCN1C(=O)/C(=C\N(C)C)NC1=S | > 11 µM (inactive)
Cc1ccc(Cn2c(=N)c(C(=O)NCC3CCCO3)cc3c(=O)n4ccccc4nc32)cc1 (stereo not drawn) | > 11 µM (inactive)
O=C1C(=Cc2cccn2-c2ccccc2)C(=O)c2ccccc21 | > 11 µM (inactive)
COC(=O)c1ccccc1-n1c(CCC(=O)O)ccc1-c1ccc(F)cc1 | > 11 µM (inactive)
O=C(N/N=C/c1c(O)n(CCc2ccccc2)c(=O)[nH]c1=O)c1ccncc1 | > 11 µM (inactive)
COc1cc(/C=N/Nc2nc(=O)[nH]nc2C)cc([N+](=O)[O-])c1O | > 11 µM (inactive)
CC1(C)CC(=O)C2=C(C1)OC(N)=C(C#N)C2c1ccccc1 (stereo not drawn) | > 11 µM (inactive)
